# Laboratory results as given in PubChem BioAssay AID256 (DTP/NCI, 2004).
# Several values for one entry are separate records, joined by “and”; a condition that tells them apart may be missing. Equal values may be shown once. Inconclusive results and toxic doses are left out.
# Test system: CD2F1 mice, L1210 leukemia ip, survival T/C
# Experiment: NCI In Vivo Anticancer Drug Screen. Data for tumor model L1210 Leukemia (intraperitoneal) in CD2F1 (CDF1) mice
# Settings: higher = longer survival
# Outline: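 Activity against a transplanted murine tumor was judged by comparing the compound group with a vehicle group. The outcome in the treated animals was divided by that in the controls.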
# [1] = endpoint: mean survival time, dose: 50.0 mg/kg/injection, schedule: Q01DX009 (ip), vehicle: saline with Tween-80
# [2] = endpoint: mean survival time, dose: 100.0 mg/kg/injection, schedule: Q01DX009 (ip), vehicle: saline with Tween-80
# [3] = endpoint: mean survival time, dose: 200.0 mg/kg/injection, schedule: Q01DX001 (ip), vehicle: saline with Tween-80
# [4] = endpoint: mean survival time, dose: 200.0 mg/kg/injection, schedule: Q01DX009 (ip), vehicle: saline with Tween-80
# [5] = endpoint: mean survival time, dose: 100.0 mg/kg/injection, schedule: Q01DX001 (ip), vehicle: saline
# [6] = endpoint: mean survival time, dose: 200.0 mg/kg/injection, schedule: Q01DX001 (ip), vehicle: saline
# [7] = endpoint: mean survival time, dose: 400.0 mg/kg/injection, schedule: Q01DX001 (ip), vehicle: saline
# [8] = endpoint: mean survival time, dose: 100.0 mg/kg/injection, schedule: Q04DX003 (ip), vehicle: saline with Tween-80
# [9] = endpoint: mean survival time, dose: 200.0 mg/kg/injection, schedule: Q04DX003 (ip), vehicle: saline with Tween-80
# [10] = endpoint: mean survival time, dose: 400.0 mg/kg/injection, schedule: Q04DX003 (ip), vehicle: saline with Tween-80
# [11] = endpoint: mean survival time, dose: 25.0 mg/kg/injection, schedule: Q01DX009 (ip), vehicle: saline with Tween-80
# [12] = endpoint: mean survival time, dose: 400.0 mg/kg/injection, schedule: Q01DX009 (ip), vehicle: saline with Tween-80
structure (smiles),measurement,setting,value
Nc1nc(=S)c2n[nH]nc2[nH]1,T/C,"endpoint: mean survival time, dose: 25.0 mg/kg/injection, schedule: Q01DX001 (ip), vehicle: saline with Tween-80",102 % of control
same,T/C,"endpoint: mean survival time, dose: 50.0 mg/kg/injection, schedule: Q01DX001 (ip), vehicle: saline with Tween-80",104 % of control
COc1cc(CC2c3cc(OC)c(OC)cc3CCN2C)c(Oc2cc3c(cc2OC)-c2c(OC)c(OC)c(OC)c4c2C(C3)N(C)CC4)cc1OC (configuration not stated),T/C,[1],95 % of control
same,T/C,[2],86 % of control
O=C(O)c1cccnc1[N+](=O)[O-],T/C,[1],98 % of control
same,T/C,"endpoint: mean survival time, dose: 100.0 mg/kg/injection, schedule: Q01DX001 (ip), vehicle: saline with Tween-80",93 % of control
same,T/C,[2],94 % of control
same,T/C,[3],93 % of control
same,T/C,[4],96 % of control
CCC1=C(C)C(=O)Nc2c3ncnc-3ncn2C1O (configuration not stated),T/C,[1],104 % of control
same,T/C,[2],101 % of control
same,T/C,[4],102 % of control
Cc1ccc(N2C(=O)C=CC2=O)cc1,T/C,"endpoint: mean survival time, dose: 5.0 mg/kg/injection, schedule: Q01DX009 (ip), vehicle: saline sonified",94 % of control
same,T/C,"endpoint: mean survival time, dose: 5.0 mg/kg/injection, schedule: Q04DX003 (ip), vehicle: saline sonified",96 % of control
same,T/C,"endpoint: mean survival time, dose: 10.0 mg/kg/injection, schedule: Q04DX003 (ip), vehicle: saline sonified",98 % of control
same,T/C,"endpoint: mean survival time, dose: 20.0 mg/kg/injection, schedule: Q01DX009 (ip), vehicle: saline sonified",90 % of control
same,T/C,"endpoint: mean survival time, dose: 20.0 mg/kg/injection, schedule: Q04DX003 (ip), vehicle: saline sonified",96 % of control
same,T/C,"endpoint: mean survival time, dose: 100.0 mg/kg/injection, schedule: Q01DX009 (ip), vehicle: acetone",88 % of control
same,T/C,"endpoint: mean survival time, dose: 200.0 mg/kg/injection, schedule: Q01DX009 (ip), vehicle: acetone",88 % of control
same,T/C,"endpoint: mean survival time, dose: 400.0 mg/kg/injection, schedule: Q01DX009 (ip), vehicle: acetone",93 % of control
C=C(C)C12CC(COC(=O)c3ccccc3)C34OC5(OC1C3C1OC1(COC(=O)CCCCCCCCCCCCCCC)C(O)C1(O)C(OC(=O)c3ccccc3)C(C)C(C(C)CCCCCCC5O)C14)O2 (configuration not stated),T/C,"endpoint: mean survival time, dose: 6.3 micrograms/kg/injection, schedule: Q01DX009 (ip), vehicle: saline",107 % of control
same,T/C,"endpoint: mean survival time, dose: 12.5 micrograms/kg/injection, schedule: Q01DX009 (ip), vehicle: saline",103 % of control
same,T/C,"endpoint: mean survival time, dose: 25.0 micrograms/kg/injection, schedule: Q01DX009 (ip), vehicle: saline",102 % of control
same,T/C,"endpoint: mean survival time, dose: 50.0 micrograms/kg/injection, schedule: Q01DX009 (ip), vehicle: saline",105 % of control
O=c1[nH]c(=S)[nH]c(-c2ccccc2)c1Cc1c(O)ccc2ccccc12,T/C,[5],101 % of control
same,T/C,[6],100 % of control
same,T/C,[7],97 % of control
CN(C=O)NC(=O)N(CCCl)N=O,T/C,"endpoint: median survival time, dose: 3.12 mg/kg/injection, schedule: Q01DX001 (ip), vehicle: saline",176 % of control and 200 % of control
same,T/C,"endpoint: median survival time, dose: 6.25 mg/kg/injection, schedule: Q01DX001 (ip), vehicle: saline",197 % of control and 312 % of control
same,T/C,"endpoint: median survival time, dose: 12.5 mg/kg/injection, schedule: Q01DX001 (ip), vehicle: saline",370 % of control and 375 % of control
same,T/C,"endpoint: median survival time, dose: 25.0 mg/kg/injection, schedule: Q01DX001 (ip), vehicle: saline",370 % of control and 375 % of control
same,T/C,"endpoint: median survival time, dose: 50.0 mg/kg/injection, schedule: Q01DX001 (ip), vehicle: saline",87 % of control
O=C(Nc1cccc(C2=NCCN2)c1)c1ccc(C(=O)Nc2cccc(C3=NCCN3)c2)c(Cl)c1,T/C,"endpoint: mean survival time, dose: 1.0 mg/kg/injection, schedule: Q01DX009 (ip), vehicle: saline",95 % of control
same,T/C,"endpoint: mean survival time, dose: 2.0 mg/kg/injection, schedule: Q01DX009 (ip), vehicle: saline",92 % of control
same,T/C,"endpoint: mean survival time, dose: 4.0 mg/kg/injection, schedule: Q01DX009 (ip), vehicle: saline",98 % of control
same,T/C,"endpoint: mean survival time, dose: 8.0 mg/kg/injection, schedule: Q01DX009 (ip), vehicle: saline",113 % of control
S=c1nn[nH]n1C1CCCCC1,T/C,"endpoint: mean survival time, dose: 25.0 mg/kg/injection, schedule: Q04DX003 (ip), vehicle: saline with Tween-80",96 % of control
same,T/C,"endpoint: mean survival time, dose: 50.0 mg/kg/injection, schedule: Q04DX003 (ip), vehicle: saline with Tween-80",98 % of control
same,T/C,[8],92 % of control
O=C(O)/C(=C(/c1ccccc1)c1ccc(Cl)cc1)c1ccccc1,T/C,[8],98 % of control
same,T/C,[9],96 % of control
same,T/C,[10],98 % of control
CN=C(N)N=C(N)N,T/C,"endpoint: mean survival time, dose: 100.0 mg/kg/injection, schedule: Q04DX003 (ip), vehicle: saline",103 % of control
same,T/C,"endpoint: mean survival time, dose: 200.0 mg/kg/injection, schedule: Q04DX003 (ip), vehicle: saline",100 % of control
same,T/C,"endpoint: mean survival time, dose: 400.0 mg/kg/injection, schedule: Q04DX003 (ip), vehicle: saline",95 % of control
Cc1cc(Oc2ccc(Cl)cc2NC(=O)Nc2ccc(Cl)c(Cl)c2)c(S(=O)(=O)O)cc1Cl,T/C,"endpoint: mean survival time, dose: 100.0 mg/kg/injection, schedule: Q01DX001 (ip), vehicle: acetone",94 % of control
same,T/C,"endpoint: mean survival time, dose: 200.0 mg/kg/injection, schedule: Q01DX001 (ip), vehicle: acetone",94 % of control
same,T/C,"endpoint: mean survival time, dose: 400.0 mg/kg/injection, schedule: Q01DX001 (ip), vehicle: acetone",93 % of control
N#CCC(=O)NN=C1CCCCC1,T/C,[5],102 % of control
same,T/C,[6],123 % of control
same,T/C,[7],107 % of control
CCOC(=O)c1cnc2c(cnn2CC)c1OCc1ccccc1,T/C,"endpoint: mean survival time, dose: 100.0 mg/kg/injection, schedule: Q04DX003 (ip), vehicle: Klucel (hydroxypropylcellulose) (HPC)",101 % of control
same,T/C,"endpoint: mean survival time, dose: 200.0 mg/kg/injection, schedule: Q04DX003 (ip), vehicle: Klucel (hydroxypropylcellulose) (HPC)",104 % of control
same,T/C,"endpoint: mean survival time, dose: 400.0 mg/kg/injection, schedule: Q04DX003 (ip), vehicle: Klucel (hydroxypropylcellulose) (HPC)",108 % of control
CCCSCCSCCC,T/C,[11],103 % of control
same,T/C,[1],103 % of control
same,T/C,[2],117 % of control
NC(=S)c1cccc(OCCOc2cccc3ccccc23)c1,T/C,[11],92 % of control
same,T/C,[1],95 % of control
same,T/C,[2],88 % of control
O=c1[nH]cc(Cc2ccccc2)c(=S)[nH]1,T/C,"endpoint: mean survival time, dose: 75.0 mg/kg/injection, schedule: Q01DX001 (ip), vehicle: saline with Tween-80",107 % of control
same,T/C,"endpoint: mean survival time, dose: 150.0 mg/kg/injection, schedule: Q01DX001 (ip), vehicle: saline with Tween-80",102 % of control
same,T/C,"endpoint: mean survival time, dose: 300.0 mg/kg/injection, schedule: Q01DX001 (ip), vehicle: saline with Tween-80",91 % of control
CCCCCCCCCCCCCCOc1ccc(OCCCCCCCCCCC)cc1,T/C,[3],89 % of control
same,T/C,"endpoint: mean survival time, dose: 400.0 mg/kg/injection, schedule: Q01DX001 (ip), vehicle: saline with Tween-80",89 % of control
CCN(CC)C(C(=O)Nc1ccccc1)C(=O)Nc1ccccc1,T/C,[2],98 % of control
same,T/C,[4],93 % of control
same,T/C,[12],98 % of control
O=C(COc1cccc(Cl)c1)NCc1ccc(Cl)cc1,T/C,[8],99 % of control
same,T/C,[9],101 % of control
same,T/C,[10],91 % of control
O=C(CCCCC(=O)N/N=C/c1ccco1)N/N=C/c1ccco1,T/C,[2],92 % of control
same,T/C,[4],88 % of control
same,T/C,[12],93 % of control
CS(=O)(=O)[O-].CS(=O)(=O)[O-].NC1CCCCC1N.[Pt+4] (configuration not stated),T/C,"endpoint: mean survival time, dose: 0.16 mg/kg/injection, schedule: Q04DX003 (ip), vehicle: other",124 % of control
same,T/C,"endpoint: mean survival time, dose: 0.62 mg/kg/injection, schedule: Q01DX009 (ip), vehicle: dextrose",119 % of control
same,T/C,"endpoint: mean survival time, dose: 5.0 mg/kg/injection, schedule: Q01DX009 (ip), vehicle: dextrose",93 % of control
CCCCCCC[CH2][Sn]1([CH2]CCCCCCC)[O]C2C(CO)OC(n3cnc4c(=O)[nH]c(N)nc43)C2[O]1 (configuration not stated),T/C,"endpoint: mean survival time, dose: 1.56 mg/kg/injection, schedule: Q01DX005 (ip), vehicle: other",96 % of control
same,T/C,"endpoint: mean survival time, dose: 3.13 mg/kg/injection, schedule: Q01DX005 (ip), vehicle: other",98 % of control
same,T/C,"endpoint: mean survival time, dose: 6.25 mg/kg/injection, schedule: Q01DX005 (ip), vehicle: other",102 % of control
same,T/C,"endpoint: mean survival time, dose: 12.5 mg/kg/injection, schedule: Q01DX005 (ip), vehicle: other",104 % of control and 106 % of control
CC1CNC(=S)S1 (configuration not stated),T/C,[2],94 % of control
same,T/C,[8],97 % of control
same,T/C,[4],109 % of control
same,T/C,[9],94 % of control
same,T/C,[12],105 % of control
same,T/C,[10],101 % of control
C=CCOC1C=CCCC1 (configuration not stated),T/C,"endpoint: mean survival time, dose: 100.0 mg/kg/injection, schedule: Q04DX002 (ip), vehicle: saline",100 % of control
same,T/C,"endpoint: mean survival time, dose: 200.0 mg/kg/injection, schedule: Q04DX002 (ip), vehicle: saline",100 % of control
same,T/C,"endpoint: mean survival time, dose: 400.0 mg/kg/injection, schedule: Q04DX002 (ip), vehicle: saline",91 % of control
COc1cc(OC)c(NC(=O)Nc2c(C)n(C)n(-c3ccccc3)c2=O)cc1Cl,T/C,"endpoint: mean survival time, dose: 12.5 mg/kg/injection, schedule: Q01DX009 (ip), vehicle: saline with Tween-80",91 % of control
same,T/C,[11],97 % of control
same,T/C,[1],93 % of control and 97 % of control
same,T/C,[4],89 % of control
O=c1[nH]c2cc3ccccc3cc2c(=O)o1,T/C,[8],92 % of control
same,T/C,[9],88 % of control
same,T/C,[10],98 % of control
